Data from patent US20080124385A1, “Methods for Transmembrane Treatment and Prevention of Otitis Media” (Piedmont Pharmaceuticals,LLC., priority 2004, published 2008).

Tested on: Haemophilus influenzae
Assay: Chinchilla model of otitis media (middle ear inoculated with Haemophilus influenzae)
Format: in vivo, Chinchilla langer
Conditions: oral gavage, 20 mg/kg BID for 6 days; 3 animals/group; positive control
Protocol: To establish and evaluate the animal model, each chinchilla was inoculated with Haemophilus influenzae directly into the middle ear of each ear by transbullar injection at a concentration of 100 cfu in a volume of 0.2 mL. Each chinchilla was given an otoscope ear exam prior to being placed on study. Dosing with a composition of the invention or control oral amoxicillin began approximately 48 hours after the bacterial inoculation. All animals were administered Buprenorphine 0.05 mg/kg twice a day subcutaneously for analgesia for the duration of the study.
At the end of the dosing period (8 days after bacterial inoculation), each animal was euthanized, their ear canals washed with saline, and examined. In particular, samples from the middle ear from each chinchilla were collected. One ear sample was cultured overnight per laboratory procedures. Approximately 24 hours after the samples plated out, they were counted and the colony forming units (cfu) recorded.
The positive control article (amoxicillin) was administered orally by gavage to three chinchillas twice per day for 6 days, approximately 8 hours apart. 2, 4 or 6 drops of ofloxacin 0.3% liposome formulation or ciprofloxacin 0.3% liposome formulation were administered to two groups of three chinchillas each as a maximal feasible dose for these animals.

## CC1(C)S[C@@H]2[C@H](NC(=O)[C@H](N)c3ccc(O)cc3)C(=O)N2[C@H]1C(=O)O [Amoxicillin, amoxicillin]
  Active infection present after 6 days: No active infection present in any animal
